For eight compounds, IC50 results are on record in ChEMBL document CHEMBL1131698, “Platelet glycoprotein IIb/IIIa receptor antagonists derived from isoxazolidines” (Bioorg Med Chem Lett, 1999).

Each structure is given as a SMILES string.

This assay is filed under the species Homo sapiens. The assay is described as follows: Compound was tested for its in vitro activity in the inhibition of platelet aggregation using human platelet rich plasma. The assay is classed as functional.
Compound `Cc1cccc(S(=O)(=O)N[C@@H](CNC(=O)C[C@@H]2C[C@H](c3ccc(C(=N)N)cc3)N(Cc3ccccc3)O2)C(=O)O)c1` displayed an IC50 of 190 nM.
As for `Cc1cccc(S(=O)(=O)N[C@@H](CNC(=O)C[C@@H]2C[C@H](c3ccc(C(=N)N)cc3)N(c3ccccc3)O2)C(=O)O)c1`, the figure is 530 nM.
Turning to `Cc1noc(C)c1S(=O)(=O)N[C@@H](CNC(=O)C[C@@H]1C[C@H](c2ccc(C(=N)N)cc2)N(C)O1)C(=O)O`, the IC50 worked out at 84 nM.
Then `Cc1ccccc1S(=O)(=O)N[C@@H](CNC(=O)C[C@@H]1C[C@H](c2ccc(C(=N)N)cc2)N(C)O1)C(=O)O`, with 58 nM; and `Cc1cccc(S(=O)(=O)N[C@@H](CNC(=O)C[C@@H]2C[C@H](c3ccc(C(=N)N)cc3)N(C)O2)C(=O)O)c1`, with 28 nM; and `CCCCOC(=O)N[C@@H](CNC(=O)C[C@@H]1C[C@H](c2ccc(C(=N)N)cc2)N(C)O1)C(=O)O`, with 164 nM.
With `Cc1cccc(S(=O)(=O)N[C@@H](CNC(=O)C[C@@H]2C[C@H](c3ccc(C(=N)N)cc3)N(C(C)C)O2)C(=O)O)c1`, the IC50 is 140 nM. This IC50 and that of the compound before are within 1.5-fold of each other.
As to `Cc1cccc(S(=O)(=O)N[C@@H](CNC(=O)C[C@H]2C[C@H](c3ccc(C(=N)N)cc3)N(C)O2)C(=O)O)c1`, the half-maximal inhibitory concentration (IC50) was 1500 nM.
